From patent US20250268884A1, “Deuterated Domperidone for Treating Gastroparesis” (CinDome Pharma, Inc., priority 2022, published 2025)

System: adults with idiopathic or diabetic gastroparesis
Test: Safety: adverse events, laboratory values, vital signs, Phase 2a
[1] = 5 mg BID (N = 9), Safety Population

Description: Safety was evaluated through assessments of Aes, vital signs, physical examinations, clinical laboratory evaluations (including prolactin), and ECG findings. Additionally, a single, optional PGx blood sample may have been collected at any time during the subject's participation in the study.
Safety variables included Aes, clinical laboratory results (including prolactin), vital signs, ECGs, and physical examination findings.

[2H]c1c([2H])c([2H])c2c([nH]c(=O)n2CCCN2CCC(n3c(=O)[nH]c4cc(Cl)ccc43)CC2)c1[2H] [Deudomperidone, 1-{3-[4-(5-chloro-2-oxo-2,3-dihydro-1H-1,3-benzodiazol-1-yl)piperidin-1yl]propyl}-2,3-dihydro(4,5,6,7-D4)-1H-1,3-benzodiazol-2-one]
20.0%: Subjects with any TEAEs, % (10 mg BID (N = 30))
1 subject each: other TEAE: abdominal pain lower (5 mg BID) | other study drug-related TEAE: abdominal pain lower (5 mg BID) | other TEAEs, each: nausea, vomiting, blood creatine phosphokinase increased, decreased appetite, palpitations, tinnitus (10 mg BID) | other study drug-related TEAEs, each: nausea, blood creatine phosphokinase increased, palpitations, tinnitus (10 mg BID)
4 (13.3%) subjects (%): subjects with study drug-related TEAEs (10 mg BID)
1 (11.1%) subjects (%): subjects with study drug-related TEAEs (5 mg BID) | subjects who experienced a TEAE (5 mg BID, Safety Population)
6 TEAEs: study drug-related TEAEs reported (10 mg BID)
0: Any TEAEs by maximum severity: Moderate, n subjects [1] | Any TEAEs by maximum severity: Severe, n subjects [1] | Any TEAEs leading to death, n subjects [1] | Any TEAEs leading to discontinuation, n subjects [1] | Any serious TEAEs, n subjects [1] | Any study drug-related TEAEs by maximum severity: Moderate, n subjects [1] | Any study drug-related TEAEs by maximum severity: Severe, n subjects [1] | Any study drug-related TEAEs leading to discontinuation, n subjects [1] | Any study drug-related serious TEAEs, n subjects [1]
2 (6.7%) subjects (%): study drug-related TEAE diarrhoea (10 mg BID)
(10.0) %: Study drug-related TEAE Gastrointestinal disorders, % (10 mg BID (N = 30)) | TEAE Diarrhoea, % (10 mg BID (N = 30))
6: Subjects with any study drug-related TEAE, e (events) (10 mg BID (N = 30))
1: Subjects with any TEAEs, e (events) (5 mg BID (N = 9)) | Subjects with any study drug-related TEAE, e (events) (5 mg BID (N = 9)) | Any Aes, n subjects [1] | Any TEAEs by maximum severity: Mild, n subjects [1] | Any TEAEs, e (number of events) [1] | Any TEAEs, n subjects [1] | Any study drug-related TEAEs by maximum severity: Mild, n subjects [1] | Any study drug-related TEAEs, n subjects [1]
(0.0) %: Study drug-related TEAE Blood creatine phosphokinase increased, % (5 mg BID (N = 9)) | Study drug-related TEAE Cardiac disorders, % (5 mg BID (N = 9)) | Study drug-related TEAE Diarrhoea, % (5 mg BID (N = 9)) | Study drug-related TEAE Ear and labyrinth disorders, % (5 mg BID (N = 9)) | Study drug-related TEAE Electrocardiogram QT prolonged, % (5 mg BID (N = 9)) | Study drug-related TEAE Headache, % (5 mg BID (N = 9)) | Study drug-related TEAE Investigations, % (5 mg BID (N = 9)) | Study drug-related TEAE Nausea, % (5 mg BID (N = 9)) | Study drug-related TEAE Nervous system disorders, % (5 mg BID (N = 9)) | Study drug-related TEAE Palpitations, % (5 mg BID (N = 9)) | Study drug-related TEAE Tinnitus, % (5 mg BID (N = 9)) | TEAE Arthralgia, % (5 mg BID (N = 9)) | TEAE Back pain, % (5 mg BID (N = 9)) | TEAE Blood creatine phosphokinase increased, % (5 mg BID (N = 9)) | TEAE Cardiac disorders, % (5 mg BID (N = 9)) | TEAE Constipation, % (5 mg BID (N = 9)) | TEAE Decreased appetite, % (5 mg BID (N = 9)) | TEAE Diarrhoea, % (5 mg BID (N = 9)) | TEAE Dyspepsia, % (5 mg BID (N = 9)) | TEAE Ear and labyrinth disorders, % (5 mg BID (N = 9)) | TEAE Electrocardiogram QT prolonged, % (5 mg BID (N = 9)) | TEAE Headache, % (5 mg BID (N = 9)) | TEAE Hypoglycaemia, % (5 mg BID (N = 9)) | TEAE Infections and infestations, % (5 mg BID (N = 9)) | TEAE Investigations, % (5 mg BID (N = 9)) | TEAE Metabolism and nutrition disorders, % (5 mg BID (N = 9)) | TEAE Musculoskeletal and connective tissue disorders, % (5 mg BID (N = 9)) | TEAE Nausea, % (5 mg BID (N = 9)) | TEAE Nervous system disorders, % (5 mg BID (N = 9)) | TEAE Palpitations, % (5 mg BID (N = 9)) | TEAE Sinusitis, % (5 mg BID (N = 9)) | TEAE Tinnitus, % (5 mg BID (N = 9)) | TEAE Vomiting, % (5 mg BID (N = 9)) | Any TEAEs by maximum severity: Moderate, % of subjects [1] | Any TEAEs by maximum severity: Severe, % of subjects [1] | Any TEAEs leading to death, % of subjects [1] | Any TEAEs leading to discontinuation, % of subjects [1] | Any serious TEAEs, % of subjects [1] | Any study drug-related TEAEs by maximum severity: Moderate, % of subjects [1] | Any study drug-related TEAEs by maximum severity: Severe, % of subjects [1] | Any study drug-related TEAEs leading to discontinuation, % of subjects [1] | Any study drug-related serious TEAEs, % of subjects [1] | Study drug-related TEAE Abdominal pain lower, % (10 mg BID (N = 30)) | Study drug-related TEAE Electrocardiogram QT prolonged, % (10 mg BID (N = 30)) | Study drug-related TEAE Headache, % (10 mg BID (N = 30)) | Study drug-related TEAE Nervous system disorders, % (10 mg BID (N = 30)) | TEAE Abdominal pain lower, % (10 mg BID (N = 30)) | TEAE Arthralgia, % (10 mg BID (N = 30)) | TEAE Back pain, % (10 mg BID (N = 30)) | TEAE Constipation, % (10 mg BID (N = 30)) | TEAE Dyspepsia, % (10 mg BID (N = 30)) | TEAE Headache, % (10 mg BID (N = 30)) | TEAE Infections and infestations, % (10 mg BID (N = 30)) | TEAE Musculoskeletal and connective tissue disorders, % (10 mg BID (N = 30))
(6.7) %: Study drug-related TEAE Diarrhoea, % (10 mg BID (N = 30)) | TEAE Investigations, % (10 mg BID (N = 30)) | TEAE Metabolism and nutrition disorders, % (10 mg BID (N = 30))
3 (10.0%) subjects (%): TEAE diarrhoea (10 mg BID)
(3.3) %: Study drug-related TEAE Blood creatine phosphokinase increased, % (10 mg BID (N = 30)) | Study drug-related TEAE Cardiac disorders, % (10 mg BID (N = 30)) | Study drug-related TEAE Ear and labyrinth disorders, % (10 mg BID (N = 30)) | Study drug-related TEAE Investigations, % (10 mg BID (N = 30)) | Study drug-related TEAE Nausea, % (10 mg BID (N = 30)) | Study drug-related TEAE Palpitations, % (10 mg BID (N = 30)) | Study drug-related TEAE Tinnitus, % (10 mg BID (N = 30)) | TEAE Blood creatine phosphokinase increased, % (10 mg BID (N = 30)) | TEAE Cardiac disorders, % (10 mg BID (N = 30)) | TEAE Decreased appetite, % (10 mg BID (N = 30)) | TEAE Ear and labyrinth disorders, % (10 mg BID (N = 30)) | TEAE Electrocardiogram QT prolonged, % (10 mg BID (N = 30)) | TEAE Hypoglycaemia, % (10 mg BID (N = 30))
(11.1) %: Study drug-related TEAE Abdominal pain lower, % (5 mg BID (N = 9)) | Study drug-related TEAE Gastrointestinal disorders, % (5 mg BID (N = 9)) | TEAE Abdominal pain lower, % (5 mg BID (N = 9)) | TEAE Gastrointestinal disorders, % (5 mg BID (N = 9)) | Any Aes, % of subjects [1] | Any TEAEs by maximum severity: Mild, % of subjects [1] | Any study drug-related TEAEs by maximum severity: Mild, % of subjects [1] | Any study drug-related TEAEs, % of subjects [1]
(13.3) %: TEAE Gastrointestinal disorders, % (10 mg BID (N = 30))
11 TEAEs: TEAEs reported (10 mg BID)
11.1%: Subjects with any TEAEs, % (5 mg BID (N = 9)) | Subjects with any study drug-related TEAE, % (5 mg BID (N = 9)) | Any TEAEs, % of subjects [1]
1 TEAE: TEAEs reported (5 mg BID) | study drug-related TEAEs reported (5 mg BID)
13.3%: Subjects with any study drug-related TEAE, % (10 mg BID (N = 30))
1 (3.3%) subjects (%): TEAE electrocardiogram QT prolonged (10 mg BID) | TEAE hypoglycaemia (10 mg BID)
11: Subjects with any TEAEs, e (events) (10 mg BID (N = 30))
